We go through one compound from ChEMBL document CHEMBL4000244, “Probing A-form DNA: A fluorescent aminosugar probe and dual recognition by anthraquinone-neomycin conjugates” (Bioorg Med Chem, 2017).

The nature of test [1]: Binding affinity to 5'-GGGCCGGG-3' DNA hairpin assessed as change in fluorescence intensity at 1 uM after 45 mins by fluorescence quenching analysis relative to control.
Test [2] is described as follows: Binding affinity to 5'-CGGGCGGC-3' DNA hairpin assessed as change in fluorescence intensity at 1 uM after 45 mins by fluorescence quenching analysis relative to control.
Test [3] in a line: Binding affinity to 5'-CGGCGGGC-3' DNA hairpin assessed as change in fluorescence intensity at 1 uM after 45 mins by fluorescence quenching analysis relative to control.
Test [4] in a line: Binding affinity to 5'-GGGGCGCC-3' DNA hairpin assessed as change in fluorescence intensity at 1 uM after 45 mins by fluorescence quenching analysis relative to control.
A short description of test [5]: Binding affinity to 5'-CGGCCCCG-3' DNA hairpin assessed as change in fluorescence intensity at 1 uM after 45 mins by fluorescence quenching analysis relative to control.
Test [6] can be described thus: Binding affinity to 5'-CGGCCCGC-3' DNA hairpin assessed as change in fluorescence intensity at 1 uM after 45 mins by fluorescence quenching analysis relative to control.

For `NCC1O[C@H](O[C@H]2[C@@H](O)[C@H](O[C@@H]3[C@@H](O)[C@H](N)C[C@H](N)[C@H]3O[C@H]3O[C@H](CN)[C@@H](O)[C@H](O)[C@H]3N)O[C@@H]2CSCCNC(=O)CCSCC(=O)Nc2ccc(-c3c4ccc(=O)cc-4oc4cc(O)ccc34)c(C(=O)O)c2)[C@H](N)[C@@H](O)[C@@H]1O` (stereo partly specified), the Activity in test [1] was 37.5%; in test [2], 45.1%; in test [3], 43.1%; in test [4], 51.4%; in test [5] it was 33.2%; in test [6], 39.9%.
